According to patent publication US10392368B2, “Pyrazolo and triazolo bicyclic compounds as JAK kinase inhibitors” (THERAVANCE BIOPHARMA R&D IP, LLC, priority 2017, dated 2019):

Columns and labels:
[1] = target: T1, JAK1 (Homo sapiens, UniProt P23458); test: Biochemical JAK1 kinase assay (LanthaScreen); settings: for Ki: read-out: JAK 1 (pKi) (converted)
T1 construct: GST; purchased Life Technologies
How it was run: (§1)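 GST-tagged JAK enzyme and GFP-STAT1 peptide preincubated with compound 1 h, then ATP added; 1 h kinase reaction at ambient temperature, pH 7.5 HEPES/MgCl2 buffer, 1% DMSO. Tb-anti-pSTAT1 (pTyr701) TR-FRET, 520/495 nm ratio; IC50 from 4-parameter fit, converted to pKi via Cheng-Prusoff.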

[2] = target: T2, JAK2 (Homo sapiens, UniProt O60674); test: Biochemical JAK2 kinase assay (LanthaScreen); settings: for Ki: read-out: JAK 2 (pKi) (converted)
T2 construct: GST; purchased Life Technologies
T2 sequence (O60674 whole entry): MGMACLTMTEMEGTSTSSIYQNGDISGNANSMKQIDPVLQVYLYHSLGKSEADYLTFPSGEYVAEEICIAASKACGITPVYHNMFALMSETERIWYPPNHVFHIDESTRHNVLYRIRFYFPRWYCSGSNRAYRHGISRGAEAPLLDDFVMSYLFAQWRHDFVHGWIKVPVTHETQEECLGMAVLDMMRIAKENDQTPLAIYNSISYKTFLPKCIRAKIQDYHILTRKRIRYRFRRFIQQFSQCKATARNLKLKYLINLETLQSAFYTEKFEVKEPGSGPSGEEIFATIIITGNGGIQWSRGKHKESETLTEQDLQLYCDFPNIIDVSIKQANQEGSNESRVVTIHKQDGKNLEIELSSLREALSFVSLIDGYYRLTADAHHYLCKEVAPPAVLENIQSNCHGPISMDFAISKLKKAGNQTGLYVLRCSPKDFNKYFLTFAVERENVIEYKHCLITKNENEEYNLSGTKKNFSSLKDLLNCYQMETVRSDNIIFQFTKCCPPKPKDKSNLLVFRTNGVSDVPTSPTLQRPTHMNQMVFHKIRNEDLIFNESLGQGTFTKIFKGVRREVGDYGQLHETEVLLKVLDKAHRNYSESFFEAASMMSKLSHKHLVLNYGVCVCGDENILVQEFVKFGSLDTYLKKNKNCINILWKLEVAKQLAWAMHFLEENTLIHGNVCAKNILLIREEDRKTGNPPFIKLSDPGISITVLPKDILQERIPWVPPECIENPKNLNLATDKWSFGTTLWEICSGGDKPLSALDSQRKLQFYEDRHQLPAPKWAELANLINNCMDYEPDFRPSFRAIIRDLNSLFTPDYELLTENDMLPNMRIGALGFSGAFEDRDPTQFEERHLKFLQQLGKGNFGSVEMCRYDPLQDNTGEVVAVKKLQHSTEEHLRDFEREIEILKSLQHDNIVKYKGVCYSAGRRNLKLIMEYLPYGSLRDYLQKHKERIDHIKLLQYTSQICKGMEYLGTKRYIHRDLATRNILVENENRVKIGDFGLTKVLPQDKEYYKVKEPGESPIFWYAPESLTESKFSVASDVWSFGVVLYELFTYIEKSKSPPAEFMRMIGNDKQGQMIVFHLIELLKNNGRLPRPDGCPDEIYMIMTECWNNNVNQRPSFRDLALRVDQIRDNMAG
How it was run: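 GST-tagged recombinant JAK2 pre-incubated 1 h at ambient temperature with compound and GFP-STAT1 peptide in HEPES pH 7.5/MgCl2 buffer, then ATP added for a 1 h reaction with 1% DMSO. TR-FRET read after EDTA and Tb-anti-pSTAT1 (pTyr701) addition; IC50 from 4-parameter fit, converted to pKi by Cheng-Prusoff.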

[3] = target: T3, Tyk2 (Homo sapiens, UniProt P29597); test: Biochemical Tyk2 kinase assay (LanthaScreen); settings: for Ki: read-out: Tyk 2 (pKi) (converted)
T3 construct: GST; purchased Life Technologies
T3 sequence (P29597 whole entry): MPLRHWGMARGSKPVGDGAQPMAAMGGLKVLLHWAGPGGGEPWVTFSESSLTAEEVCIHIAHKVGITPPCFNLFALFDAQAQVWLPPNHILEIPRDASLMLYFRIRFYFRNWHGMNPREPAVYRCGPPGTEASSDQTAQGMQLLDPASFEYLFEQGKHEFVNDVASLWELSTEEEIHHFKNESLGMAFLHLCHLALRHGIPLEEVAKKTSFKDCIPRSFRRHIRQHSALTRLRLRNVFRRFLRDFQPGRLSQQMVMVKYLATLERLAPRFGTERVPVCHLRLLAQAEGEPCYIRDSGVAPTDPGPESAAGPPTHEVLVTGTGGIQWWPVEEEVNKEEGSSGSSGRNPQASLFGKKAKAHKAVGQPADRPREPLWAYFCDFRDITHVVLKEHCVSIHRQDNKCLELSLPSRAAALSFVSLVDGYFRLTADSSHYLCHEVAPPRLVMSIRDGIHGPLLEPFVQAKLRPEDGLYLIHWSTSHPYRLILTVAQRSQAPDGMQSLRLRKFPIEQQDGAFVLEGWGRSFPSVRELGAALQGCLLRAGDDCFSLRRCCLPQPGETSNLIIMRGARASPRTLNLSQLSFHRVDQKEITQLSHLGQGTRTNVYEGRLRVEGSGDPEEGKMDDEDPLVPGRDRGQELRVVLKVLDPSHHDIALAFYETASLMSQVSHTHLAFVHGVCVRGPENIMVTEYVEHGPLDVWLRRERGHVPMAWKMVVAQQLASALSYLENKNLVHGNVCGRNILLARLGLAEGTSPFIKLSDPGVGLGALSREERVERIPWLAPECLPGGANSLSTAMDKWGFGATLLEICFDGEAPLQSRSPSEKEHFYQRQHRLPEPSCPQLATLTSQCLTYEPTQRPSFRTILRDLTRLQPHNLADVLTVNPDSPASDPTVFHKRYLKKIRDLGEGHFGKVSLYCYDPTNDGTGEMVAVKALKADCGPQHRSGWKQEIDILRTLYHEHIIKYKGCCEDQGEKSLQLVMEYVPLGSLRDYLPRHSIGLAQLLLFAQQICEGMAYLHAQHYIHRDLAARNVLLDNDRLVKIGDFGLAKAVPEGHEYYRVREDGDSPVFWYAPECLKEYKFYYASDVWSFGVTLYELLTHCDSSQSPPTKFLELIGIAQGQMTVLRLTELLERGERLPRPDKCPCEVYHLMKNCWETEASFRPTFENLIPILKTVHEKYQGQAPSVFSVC
How it was run: as §1

[4] = test system: IL-2 stimulated pSTAT5 in Tall-1 T cells; test: Cellular JAK3 potency assay: inhibition of IL-2 stimulated pSTAT5 in Tall-1 T cells; format: cell-based, human; settings: for IC50: Homo sapiens, TALL-1, IL-2 stimulated pSTAT5 in Tall-1 T cells, read-out: Tall-1 (pIC50) (converted)
How it was run: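 Tall-1 human T cells (45,000/well) in phenol red-free DMEM with 10% FBS were preincubated with compound 1 h at 37 °C, then stimulated with IL-2 (final 300 ng/ml) for 30 min. Lysate pSTAT5 read by AlphaLisa; IC50 from inhibition curves, reported as pIC50 (mean±SD).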

[5] = target: T4, JAK3 (Homo sapiens, UniProt P52333); test: Biochemical JAK3 kinase assay (LanthaScreen); parameters: GST; purchased Life Technologies; settings: for Ki: read-out: JAK 3 (pKi) (converted)
T4 sequence (P52333 1-1124): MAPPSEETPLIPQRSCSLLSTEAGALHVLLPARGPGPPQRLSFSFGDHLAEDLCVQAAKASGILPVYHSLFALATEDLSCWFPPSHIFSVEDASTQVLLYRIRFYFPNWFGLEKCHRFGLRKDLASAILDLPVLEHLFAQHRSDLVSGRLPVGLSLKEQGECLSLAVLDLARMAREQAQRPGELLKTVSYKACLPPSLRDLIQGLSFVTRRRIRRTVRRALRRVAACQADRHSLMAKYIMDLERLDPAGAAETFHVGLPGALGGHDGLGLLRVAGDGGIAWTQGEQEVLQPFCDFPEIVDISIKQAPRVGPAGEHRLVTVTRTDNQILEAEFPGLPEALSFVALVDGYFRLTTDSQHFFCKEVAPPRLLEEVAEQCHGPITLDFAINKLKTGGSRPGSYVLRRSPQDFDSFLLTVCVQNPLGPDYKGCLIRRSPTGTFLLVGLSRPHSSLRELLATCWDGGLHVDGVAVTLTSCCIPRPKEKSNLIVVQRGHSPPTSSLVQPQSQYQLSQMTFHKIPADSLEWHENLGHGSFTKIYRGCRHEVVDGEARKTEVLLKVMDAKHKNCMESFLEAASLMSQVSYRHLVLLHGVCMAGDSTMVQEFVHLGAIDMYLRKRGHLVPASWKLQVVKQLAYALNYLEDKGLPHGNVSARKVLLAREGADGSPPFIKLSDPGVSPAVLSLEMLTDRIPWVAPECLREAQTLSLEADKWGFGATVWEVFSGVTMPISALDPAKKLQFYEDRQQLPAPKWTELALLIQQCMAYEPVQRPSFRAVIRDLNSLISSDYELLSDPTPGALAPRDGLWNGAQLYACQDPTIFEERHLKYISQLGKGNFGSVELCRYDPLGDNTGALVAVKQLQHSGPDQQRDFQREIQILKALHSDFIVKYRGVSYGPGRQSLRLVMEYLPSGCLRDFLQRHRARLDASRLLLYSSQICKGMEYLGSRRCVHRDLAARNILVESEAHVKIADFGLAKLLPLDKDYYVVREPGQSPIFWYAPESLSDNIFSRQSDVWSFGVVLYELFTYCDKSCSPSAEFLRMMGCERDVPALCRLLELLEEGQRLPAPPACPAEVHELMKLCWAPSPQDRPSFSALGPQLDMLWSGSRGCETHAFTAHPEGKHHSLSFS
How it was run: as §1

[6] = IL-2 stimulated pSTAT5, Tall-1 T cells
[7] = selectivity JAK3 over JAK1, difference of pKi
[8] = IL-2 stimulated pSTAT5 in Tall-1 T cells
[9] = selectivity: difference of pKi JAK3 and pKi JAK1

T1 sequence (P23458 whole entry): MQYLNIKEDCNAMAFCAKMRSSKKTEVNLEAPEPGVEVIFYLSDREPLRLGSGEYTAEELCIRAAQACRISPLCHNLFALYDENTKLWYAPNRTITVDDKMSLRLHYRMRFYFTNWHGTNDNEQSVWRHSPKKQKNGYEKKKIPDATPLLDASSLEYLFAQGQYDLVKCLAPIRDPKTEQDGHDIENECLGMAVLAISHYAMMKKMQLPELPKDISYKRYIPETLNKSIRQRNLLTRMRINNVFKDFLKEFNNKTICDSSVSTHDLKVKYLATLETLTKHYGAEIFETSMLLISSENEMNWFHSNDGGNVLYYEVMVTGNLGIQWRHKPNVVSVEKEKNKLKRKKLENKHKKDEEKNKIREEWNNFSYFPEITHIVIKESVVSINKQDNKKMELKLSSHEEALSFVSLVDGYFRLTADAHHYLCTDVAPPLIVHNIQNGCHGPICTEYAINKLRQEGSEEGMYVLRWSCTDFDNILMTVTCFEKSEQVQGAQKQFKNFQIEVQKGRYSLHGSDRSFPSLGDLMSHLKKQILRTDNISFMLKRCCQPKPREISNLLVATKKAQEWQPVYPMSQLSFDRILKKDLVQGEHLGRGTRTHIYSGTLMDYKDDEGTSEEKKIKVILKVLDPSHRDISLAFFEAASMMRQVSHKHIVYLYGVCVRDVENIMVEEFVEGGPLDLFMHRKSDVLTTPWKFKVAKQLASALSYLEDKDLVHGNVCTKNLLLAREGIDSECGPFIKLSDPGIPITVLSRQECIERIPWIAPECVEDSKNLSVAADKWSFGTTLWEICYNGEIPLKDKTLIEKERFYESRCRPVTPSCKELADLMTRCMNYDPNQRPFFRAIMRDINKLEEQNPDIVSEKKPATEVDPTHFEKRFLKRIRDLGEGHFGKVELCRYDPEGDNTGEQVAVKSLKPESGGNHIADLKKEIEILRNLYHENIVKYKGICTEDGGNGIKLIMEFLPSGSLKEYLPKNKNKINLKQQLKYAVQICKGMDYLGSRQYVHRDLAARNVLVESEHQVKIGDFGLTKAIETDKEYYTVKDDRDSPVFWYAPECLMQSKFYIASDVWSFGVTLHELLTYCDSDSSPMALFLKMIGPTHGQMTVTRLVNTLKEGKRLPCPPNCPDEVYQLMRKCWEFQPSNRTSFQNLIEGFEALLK

Row | SMILES | JAK 1 (pKi) [1] | JAK 2 (pKi) [2] | Tyk 2 (pKi) [3] | Tall-1 (pIC50) [4, 6] | JAK 3 (pKi) [5] | JAK3 (pKi)-JAK1 (pKi) [5, 7] | Tall-1 (pIC50) [4, 8] | JAK3 (pKi)-JAK1 (pKi) [5, 9] | Ki [1] [nM] | Ki [2] [nM] | Ki [3] [nM] | IC50 [4] [nM] | Ki [5] [nM]
1 | C=CC(=O)N1CCC(COc2cc(-c3ccc(O)c(Cl)c3)cc3[nH]ncc23)CC1 [Compound 14-1] | E (a pKi value of 7 or below (Ki of 100 nM or above)) | E (a pKi value of 7 or below (Ki of 100 nM or above)) | E (a pKi value of 7 or below (Ki of 100 nM or above)) | A (a pIC50 value≥7.5 (IC50≤32 nM)) | B (a pKi value between 9 and 10 (Ki between 1 nM and 0.1 nM)) | A (a value of 3 or above) | – | – | – | – | – | – | –
2 | C=CC(=O)N1CC(Oc2nc(-c3ccc(O)cc3)nc3[nH]ncc23)CC1C (stereo not drawn) [Compound 1-24] | E (a pKi value of 7 or below (Ki of 100 nM or above)) | E (a pKi value of 7 or below (Ki of 100 nM or above)) | E (a pKi value of 7 or below (Ki of 100 nM or above)) | – | B (a pKi value between 9 and 10 (Ki between 1 nM and 0.1 nM)) | – | C (a pIC50 value between 6 and 6.7 (IC50 between 1 μM and 200 nM)) | A (a value of 3 or above) | – | – | – | – | –
3 | CN(C)C/C=C\C(=O)N1CC(COc2cc(-c3ccc(O)c(Cl)c3)cc3[nH]ncc23)C1 [Compound 3-122] | – | – | – | – | – | – | – | A (a value of 3 or above) | > 100 | 10 to 100 | > 100 | < 31.6 | < 0.1
4 | C=CC(=O)N1CC(C#N)(COc2cc(-c3ccc(O)c(F)c3)nc3[nH]ncc23)C1 [Compound 3-111] | E (a pKi value of 7 or below (Ki of 100 nM or above)) | E (a pKi value of 7 or below (Ki of 100 nM or above)) | E (a pKi value of 7 or below (Ki of 100 nM or above)) | – | B (a pKi value between 9 and 10 (Ki between 1 nM and 0.1 nM)) | – | C (a pIC50 value between 6 and 6.7 (IC50 between 1 μM and 200 nM)) | A (a value of 3 or above) | – | – | – | – | –
5 | CN(C)C/C=C/C(=O)N1CC(F)(COc2nc(-c3ccc(O)c(F)c3)nc3[nH]ncc23)C1 [Compound 3-51] | E (a pKi value of 7 or below (Ki of 100 nM or above)) | E (a pKi value of 7 or below (Ki of 100 nM or above)) | E (a pKi value of 7 or below (Ki of 100 nM or above)) | – | B (a pKi value between 9 and 10 (Ki between 1 nM and 0.1 nM)) | – | C (a pIC50 value between 6 and 6.7 (IC50 between 1 μM and 200 nM)) | A (a value of 3 or above) | – | – | – | – | –
6 | CSC1CCN(C/C=C/C(=O)N2CC(COc3cc(-c4ccc(O)cc4)cc4[nH]ncc34)C2)C1 (stereo not drawn) [Compound 3-125] | – | – | – | – | – | – | – | A (a value of 3 or above) | > 100 | > 100 | > 100 | 31.6 to 200 | 0.1 to 1
7 | CN(C)C/C=C/C(=O)N1CC(F)(COc2nc(-c3ccc(O)c(Cl)c3)nc3[nH]ncc23)C1 [Compound 3-50] | – | – | – | – | – | – | – | A (a value of 3 or above) | > 100 | > 100 | > 100 | 31.6 to 200 | 0.1 to 1
8 | C=CC(=O)N1CC[C@H](COc2cc(-c3ccc(O)c(F)c3)nc3[nH]ncc23)C1 [Compound 2-17] | E (a pKi value of 7 or below (Ki of 100 nM or above)) | E (a pKi value of 7 or below (Ki of 100 nM or above)) | E (a pKi value of 7 or below (Ki of 100 nM or above)) | – | A (a pKi value≥10 (Ki≤0.1 nM)) | – | B (a pIC50 value between 6.7 (included) and 7.5 (IC50 between 200 nM and 32 nM)) | A (a value of 3 or above) | – | – | – | – | –
9 | C=CC(=O)N1CC(F)(COc2cc(-c3ccc(O)c(Cl)c3)cc3[nH]ncc23)C1 [Compound 3-43] | E (a pKi value of 7 or below (Ki of 100 nM or above)) | D (a pKi value between 7 and 8 (Ki between 100 nM and 10 nM)) | E (a pKi value of 7 or below (Ki of 100 nM or above)) | – | B (a pKi value between 9 and 10 (Ki between 1 nM and 0.1 nM)) | – | A (a pIC50 value≥7.5 (IC50≤32 nM)) | A (a value of 3 or above) | – | – | – | – | –
10 | C=CC(=O)N1CC(F)(COc2nc(-c3ccc(O)cc3)nc3[nH]ncc23)C1 [Compound 3-45] | – | – | – | – | – | – | – | A (a value of 3 or above) | > 100 | > 100 | > 100 | < 31.6 | 0.1 to 1
11 | C=CC(=O)N1CC(C)(COc2cc(-c3ccc(O)cc3)cc3[nH]ncc23)C1 [Compound 3-8] | E (a pKi value of 7 or below (Ki of 100 nM or above)) | E (a pKi value of 7 or below (Ki of 100 nM or above)) | E (a pKi value of 7 or below (Ki of 100 nM or above)) | – | B (a pKi value between 9 and 10 (Ki between 1 nM and 0.1 nM)) | – | A (a pIC50 value≥7.5 (IC50≤32 nM)) | A (a value of 3 or above) | – | – | – | – | –
12 | C=CC(=O)N1CC[C@@H](COc2cc(-c3ccc(O)cc3)cc3[nH]ncc23)C1 [Compound 12-20] | E (a pKi value of 7 or below (Ki of 100 nM or above)) | D (a pKi value between 7 and 8 (Ki between 100 nM and 10 nM)) | E (a pKi value of 7 or below (Ki of 100 nM or above)) | A (a pIC50 value≥7.5 (IC50≤32 nM)) | B (a pKi value between 9 and 10 (Ki between 1 nM and 0.1 nM)) | A (a value of 3 or above) | – | – | – | – | – | – | –
13 | C=CC(=O)N1CC(C(C)Oc2nc(-c3ccc(O)cc3)nc3[nH]ncc23)C1 (stereo not drawn) [Compound 3-77] | – | – | – | – | – | – | – | A (a value of 3 or above) | > 100 | > 100 | > 100 | 31.6 to 200 | < 0.1
